Assay results from patent US20170190671A1, “BIS(ARYL)CATECHOL DERIVATIVES AS HERBICIDES” (E I DU PONT DE NEMOURS AND COMPANY, priority 2014, published 2017).

What was measured:
Assay type in all cases: in vivo
[1] = tested on: Italian ryegrass (Lolium multiflorum); experiment: Test A preemergence; conditions: Lolium multiflorum, pre-emergence, 240 h; for pest or weed control at 31 g/ha: 31 g ai/ha, 0 to 100 scale (0 no effect, 100 complete control), read-out: Ryegrass, Italian plant response rating; for pest or weed control at 125 g/ha: 125 g ai/ha, 0 to 100 scale, read-out: Plant response rating, Ryegrass, Italian
Text: (§1) Seeds of plant species selected from barnyardgrass (Echinochloa crus-galli), kochia (Kochia scoparia), ragweed (common ragweed, Ambrosia elatior), Italian ryegrass (Lolium multiflorum), large (Lg) crabgrass (Digitaria sanguinalis), giant foxtail (Setaria faberii), morningglory (Ipomoea spp.), pigweed (Amaranthus retroflexus), velvetleaf (Abutilon theophrasti), wheat (Triticum aestivum), and corn (Zea mays) were planted into a blend of loam soil and sand and treated preemergence with a directed soil spray using test chemicals formulated in a non-phytotoxic solvent mixture which included a surfactant.
(§2) At the same time, plants selected from these crop and weed species and also blackgrass (Alopecurus myosuroides), and galium (catchweed bedstraw, Galium aparine) were planted in pots containing the same blend of loam soil and sand and treated with postemergence applications of test chemicals formulated in the same manner. Plants ranged in height from 2 to 10 cm and were in the one- to two-leaf stage for the postemergence treatment. Treated plants and untreated controls were maintained in a greenhouse for approximately 10 days, after which time all treated plants were compared to untreated controls and visually evaluated for injury. Plant response ratings, summarized in Table A, are based on a 0 to 100 scale where 0 is no effect and 100 is complete control. A dash (-) response means no test result.

[2] = tested on: giant foxtail (Setaria faberii); experiment: Test A preemergence; conditions: Setaria faberi, pre-emergence, 240 h; for pest or weed control at 31 g/ha: 31 g ai/ha, 0 to 100 scale (0 no effect, 100 complete control), read-out: Foxtail, Giant plant response rating; for pest or weed control at 125 g/ha: 125 g ai/ha, 0 to 100 scale, read-out: Plant response rating, Foxtail, Giant
Text: as §1, §2

kochia (Kochia scoparia) [3] = experiment: Test A preemergence; conditions: Bassia scoparia, pre-emergence, 240 h; for pest or weed control at 31 g/ha: 31 g ai/ha, 0 to 100 scale (0 no effect, 100 complete control), read-out: Kochia plant response rating; for pest or weed control at 125 g/ha: 125 g ai/ha, 0 to 100 scale, read-out: Plant response rating, Kochia
Text: as §1, §2

[4] = tested on: barnyardgrass (Echinochloa crus-galli); experiment: Test A preemergence; conditions: Echinochloa crus-galli, pre-emergence, 240 h; for pest or weed control at 31 g/ha: 31 g ai/ha, 0 to 100 scale (0 no effect, 100 complete control), read-out: Barnyardgrass plant response rating; for pest or weed control at 125 g/ha: 125 g ai/ha, 0 to 100 scale, read-out: Plant response rating, Barnyardgrass
Text: as §1, §2

[5] = tested on: ragweed (common ragweed, Ambrosia elatior); experiment: Test A preemergence; conditions: Ambrosia artemisiifolia, pre-emergence, 240 h; for pest or weed control at 31 g/ha: 31 g ai/ha, 0 to 100 scale (0 no effect, 100 complete control), read-out: Ragweed plant response rating; for pest or weed control at 125 g/ha: 125 g ai/ha, 0 to 100 scale, read-out: Plant response rating, Ragweed
Text: as §1, §2

[6] = tested on: pigweed (Amaranthus retroflexus); experiment: Test A preemergence; conditions: Amaranthus retroflexus, pre-emergence, 240 h; for pest or weed control at 31 g/ha: 31 g ai/ha, 0 to 100 scale (0 no effect, 100 complete control), read-out: Pigweed plant response rating; for pest or weed control at 125 g/ha: 125 g ai/ha, 0 to 100 scale, read-out: Plant response rating, Pigweed
Text: as §1, §2

[7] = tested on: galium (catchweed bedstraw, Galium aparine); experiment: Test A postemergence; conditions: Galium, post-emergence, 240 h, 0 to 100 scale, read-out: Plant response rating, Galium; for pest or weed control at 31 g/ha: 31 g ai/ha; for pest or weed control at 125 g/ha: 125 g ai/ha
Text: as §1, §2

[8] = tested on: Italian ryegrass (Lolium multiflorum); experiment: Test A postemergence; conditions: Lolium multiflorum, post-emergence, 240 h, 0 to 100 scale, read-out: Plant response rating, Ryegrass, Italian; for pest or weed control at 31 g/ha: 31 g ai/ha; for pest or weed control at 125 g/ha: 125 g ai/ha
Text: as §1, §2

[9] = tested on: blackgrass (Alopecurus myosuroides); experiment: Test A postemergence; conditions: Alopecurus myosuroides, post-emergence, 240 h, 0 to 100 scale, read-out: Plant response rating, Blackgrass; for pest or weed control at 31 g/ha: 31 g ai/ha; for pest or weed control at 125 g/ha: 125 g ai/ha
Text: as §1, §2

[10] = tested on: giant foxtail (Setaria faberii); experiment: Test A postemergence; conditions: Setaria faberi, post-emergence, 240 h, 0 to 100 scale, read-out: Plant response rating, Foxtail, Giant; for pest or weed control at 31 g/ha: 31 g ai/ha; for pest or weed control at 125 g/ha: 125 g ai/ha
Text: as §1, §2

kochia (Kochia scoparia) [11] = experiment: Test A postemergence; conditions: Bassia scoparia, post-emergence, 240 h, 0 to 100 scale, read-out: Plant response rating, Kochia; for pest or weed control at 31 g/ha: 31 g ai/ha; for pest or weed control at 125 g/ha: 125 g ai/ha
Text: as §1, §2

[12] = tested on: barnyardgrass (Echinochloa crus-galli); experiment: Test A postemergence; conditions: Echinochloa crus-galli, post-emergence, 240 h, 0 to 100 scale, read-out: Plant response rating, Barnyardgrass; for pest or weed control at 31 g/ha: 31 g ai/ha; for pest or weed control at 125 g/ha: 125 g ai/ha
Text: as §1, §2

[13] = tested on: wheat (Triticum aestivum); experiment: Test A postemergence; conditions: Triticum aestivum, post-emergence, 240 h, 0 to 100 scale, read-out: Plant response rating, Wheat; for plant injury at 31 g/ha: 31 g ai/ha; for plant injury at 125 g/ha: 125 g ai/ha
Text: as §1, §2

corn (Zea mays) = experiment: Test A postemergence; conditions: Zea mays, post-emergence, 240 h, 0 to 100 scale; for Corn plant response rating (crop injury, 0 = no effect, 100 = complete kill) at 31 g/ha: 31 g ai/ha; for Corn plant response rating (crop injury, 0 = no effect, 100 = complete kill) at 125 g/ha: 125 g ai/ha
Text: as §1, §2

[14] = tested on: ragweed (common ragweed, Ambrosia elatior); experiment: Test A postemergence; conditions: Ambrosia artemisiifolia, post-emergence, 240 h, 0 to 100 scale, read-out: Plant response rating, Ragweed; for pest or weed control at 31 g/ha: 31 g ai/ha; for pest or weed control at 125 g/ha: 125 g ai/ha
Text: as §1, §2

[15] = tested on: pigweed (Amaranthus retroflexus); experiment: Test A postemergence; conditions: Amaranthus retroflexus, post-emergence, 240 h, 0 to 100 scale, read-out: Plant response rating, Pigweed; for pest or weed control at 31 g/ha: 31 g ai/ha; for pest or weed control at 125 g/ha: 125 g ai/ha
Text: as §1, §2

SMILES	pest or weed control at 31 g/ha [1] [%]	pest or weed control at 125 g/ha [1] [%]	pest or weed control at 31 g/ha [2] [%]	pest or weed control at 125 g/ha [2] [%]	pest or weed control at 31 g/ha (kochia (Kochia scoparia) [3]) [%]	pest or weed control at 125 g/ha (kochia (Kochia scoparia) [3]) [%]	pest or weed control at 31 g/ha [4] [%]	pest or weed control at 125 g/ha [4] [%]	pest or weed control at 31 g/ha [5] [%]	pest or weed control at 125 g/ha [5] [%]	pest or weed control at 31 g/ha [6] [%]	pest or weed control at 125 g/ha [6] [%]	pest or weed control at 31 g/ha [7] [%]	pest or weed control at 125 g/ha [7] [%]	pest or weed control at 31 g/ha [8] [%]	pest or weed control at 125 g/ha [8] [%]	pest or weed control at 31 g/ha [9] [%]	pest or weed control at 125 g/ha [9] [%]	pest or weed control at 31 g/ha [10] [%]	pest or weed control at 125 g/ha [10] [%]	also measured
N#Cc1cccc(Oc2ncc(Br)cn2)c1Oc1cccnc1 [Compound 7]	0	0	0	0	0	0	0	0	0	0	0	0	10	10	0	0	0	0	0	0	pest or weed control at 31 g/ha (kochia (Kochia scoparia) [11]): 0%; pest or weed control at 125 g/ha (kochia (Kochia scoparia) [11]): 10%; pest or weed control at 31 g/ha [12]: 0%; pest or weed control at 125 g/ha [12]: 0%; plant injury at 31 g/ha [13]: 0%; plant injury at 125 g/ha [13]: 0%; Corn plant response rating (crop injury, 0 = no effect, 100 = complete kill) at 31 g/ha (corn (Zea mays)): 0%; Corn plant response rating (crop injury, 0 = no effect, 100 = complete kill) at 125 g/ha (corn (Zea mays)): 10%; pest or weed control at 31 g/ha [14]: 0%; pest or weed control at 125 g/ha [14]: 0%; pest or weed control at 31 g/ha [15]: 10%; pest or weed control at 125 g/ha [15]: 20%
N#Cc1cccc(Oc2ncc(Cl)cn2)c1Oc1cccnc1 [Compound 8]	0	0	0	0	0	0	0	0	0	0	0	10	10	20	0	0	0	0	0	0	pest or weed control at 31 g/ha (kochia (Kochia scoparia) [11]): 10%; pest or weed control at 125 g/ha (kochia (Kochia scoparia) [11]): 30%; pest or weed control at 31 g/ha [12]: 0%; pest or weed control at 125 g/ha [12]: 10%; plant injury at 31 g/ha [13]: 0%; plant injury at 125 g/ha [13]: 0%; Corn plant response rating (crop injury, 0 = no effect, 100 = complete kill) at 31 g/ha (corn (Zea mays)): 0%; Corn plant response rating (crop injury, 0 = no effect, 100 = complete kill) at 125 g/ha (corn (Zea mays)): 10%; pest or weed control at 31 g/ha [14]: 0%; pest or weed control at 125 g/ha [14]: 0%; pest or weed control at 31 g/ha [15]: 10%; pest or weed control at 125 g/ha [15]: 20%
